# Measured values reported in patent publication US9795140B2, “Molecules having pesticidal utility, and intermediates, compositions, and processes, related thereto” (priority 2015, dated 2017).
# Like-named read-outs stand apart in the source and are kept apart here.
# Key:
# Assay type in all cases: in vivo
# [1] = test system: Beet Armyworm (Spodoptera exigua, LAPHEG); assay: Bioassay on Beet Armyworm (BAW), 128-well diet tray assay; details: 168 h, read-out: BAW % Control (or Mortality) rating
# Description: (§1) Certain molecules disclosed in this document were tested against BAW and CL using procedures described in the following examples. In the reporting of the results, the “BAW & CL Rating Table” was used (See Table Section).
# Bioassays on BAW were conducted using a 128-well diet tray assay. One to five second instar BAW larvae were placed in each well (3 mL) of the diet tray that had been previously filled with approximately 1.5 mL of artificial diet to which 50 μg/cm^2 of the test molecule (dissolved in 50 μL of 90:10 acetone-water mixture) had been applied (to each of eight wells) and then allowed to dry. Trays were covered with a clear self-adhesive cover, vented to allow gas exchange, and held at 25° C., 14:10 light-dark for five to seven days. Percent mortality was recorded for the larvae in each well; activity in the eight wells was then averaged. The results are indicated in the table entitled “Table ABC: Biological Results” (See Table Section).
# [2] = test system: Yellow Fever Mosquito (Aedes aegypti, AEDSAE); assay: Bioassay on Yellow Fever Mosquito (YFM) larvae, 96-well plate; details: about 1 day-old larvae, room temperature, 3 days, scored on mortality
# Description: Certain molecules disclosed in this document were tested against YFM using procedures described in the following paragraph. In the reporting of the results, the “GPA & YFM Rating Table” was used (See Table Section).
# Master plates containing 400 μg of a molecule dissolved in 100 μL of dimethyl sulfoxide (DMSO) (equivalent to a 4000 ppm solution) are used. A master plate of assembled molecules contains 15 μL per well. To this plate, 135 μL of a 90:10 water/acetone mixture is added to each well. A robot is programmed to dispense 15 μL aspirations from the master plate into an empty 96-well shallow plate (“daughter” plate). There are 6 reps (“daughter” plates) created per master. The created “daughter” plates are then immediately infested with YFM larvae.
# The day before plates are to be treated, mosquito eggs are placed in Millipore water containing liver powder to begin hatching (4 g. into 400 mL). After the “daughter” plates are created using the robot, they are infested with 220 μL of the liver powder/larval mosquito mixture (about 1 day-old larvae). After plates are infested with mosquito larvae, a non-evaporative lid is used to cover the plate to reduce drying. Plates are held at room temperature for 3 days prior to grading. After 3 days, each well is observed and scored based on mortality. The results are indicated in the table entitled “Table ABC: Biological Results” (See Table Section).
# [3] = test system: Cabbage Looper (Trichoplusia ni, TRIPNI); assay: Bioassay on Cabbage Looper (CL), 128-well diet tray assay; details: 168 h, read-out: CL % Control (or Mortality) rating
# Description: as §1
# Bioassays on CL were conducted using a 128-well diet tray assay, one to five second instar CL larvae were placed in each well (3 mL) of the diet tray that had been previously filled with 1 mL of artificial diet to which 50 μg/cm^2 of the test molecule (dissolved in 50 μL of 90:10 acetone-water mixture) had been applied (to each of eight wells) and then allowed to dry. Trays were covered with a clear self-adhesive cover, vented to allow gas exchange, and held at 25° C., 14:10 light-dark for five to seven days. Percent mortality was recorded for the larvae in each well; activity in the eight wells was then averaged. The results are indicated in the table entitled “Table ABC: Biological Results” (See Table Section).
# [4] = 50 μg/cm^2 on artificial diet, second instar larvae, 25° C., five to seven days, average of eight wells
Compound,"mortality at 50 µg/cm2 [1, 4] [%]",YFM % Control (or Mortality) rating [2],"mortality at 50 µg/cm2 [3, 4] [%]",mortality at 50 µg/cm2 [1] [%],mortality at 50 µg/cm2 [3] [%]
"COCCNC(=O)c1cc(NC(=O)[C@H]2[C@H](c3cc(Cl)cc(Cl)c3)C2(Cl)Cl)ccc1Cl (relative stereo) [F53, trans-2-Chloro-5-(2,2-dichloro-3-(3,5-dichlorophenyl)cyclopropane-1-carboxamido)-N-(2-methoxyethyl)benzamide]",50 to 100,B (More than 0-Less than 80),50 to 100,–,–
"O=C(NCC(F)(F)F)c1cc(NC(=O)[C@H]2[C@H](c3ccc(Br)c(C(F)(F)F)c3)C2(Cl)Cl)ccc1Cl (relative stereo) [F115, 5-(trans-3-(4-Bromo-3-(trifluoromethyl)phenyl)-2,2-dichlorocyclopropane-1-carboxamido)-2-chloro-N-(2,2,2-trifluoroethyl)benzamide]",50 to 100,A (80-100),50 to 100,–,–
"O=C(NCC(F)(F)F)c1cc(NC(=O)[C@H]2[C@H](c3cc(F)cc(Br)c3)C2(Cl)Cl)ccc1Cl (relative stereo) [F123, 5-(trans-3-(3-Bromo-5-fluorophenyl)-2,2-dichlorocyclopropane-1-carboxamido)-2-chloro-N-(2,2,2-trifluoroethyl)benzamide]",50 to 100,A (80-100),50 to 100,–,–
"O=C(NCC(F)(F)F)c1cc(NC(=O)[C@H]2[C@H](c3ccc(C(F)(F)F)c(F)c3)C2(Cl)Cl)ccc1Cl (relative stereo) [F112, 2-Chloro-5-(trans-2,2-dichloro-3-(3-fluoro-4-(trifluoromethyl)phenyl)cyclopropane-1-carboxamido)-N-(2,2,2-trifluoroethyl)benzamide]",50 to 100,A (80-100),50 to 100,–,–
"O=C(NCCn1cccn1)c1cc(NC(=O)[C@H]2[C@H](c3cc(Cl)cc(Cl)c3)C2(Cl)Cl)ccc1Cl (relative stereo) [PF13, trans-N-(2-(1H-Pyrazol-1-yl)ethyl)-2-chloro-5-(2,2-dichloro-3-(3,5-dichlorophenyl)cyclopropane-1-carboxamido)benzamide]",50 to 100,A (80-100),50 to 100,–,–
"CCNC(=O)c1cc(NC(=O)[C@H]2[C@H](c3cc(Cl)c(OC)c(Cl)c3)C2(Cl)Cl)ccc1Cl (relative stereo) [F85, trans-2-Chloro-5-(2,2-dichloro-3-(3,5-dichloro-4-methoxyphenyl)cyclopropane-1-carboxamido)-N-ethylbenzamide]",50 to 100,B (More than 0-Less than 80),50 to 100,–,–
"O=C(NCC(F)(F)F)c1cc(NC(=O)[C@H]2[C@H](c3ccc(F)c(F)c3)C2(Cl)Cl)ccc1Cl (relative stereo) [F108, 2-chloro-5-(trans-2,2-dichloro-3-(3,4-difluorophenyl)cyclopropane-1-carboxamido)-N-(2,2,2-trifluoroethyl)benzamide]",–,A (80-100),–,50 to 100,50 to 100
"O=C(NCC(F)(F)F)c1cc(NC(=O)[C@H]2[C@H](c3cc(Br)cc(C(F)(F)F)c3)C2(Cl)Cl)ccc1Cl (relative stereo) [F124, 5-(trans-3-(3-Bromo-5-(trifluoromethyl)phenyl)-2,2-dichlorocyclopropane-1-carboxamido)-2-chloro-N-(2,2,2-trifluoroethyl)benzamide]",50 to 100,A (80-100),50 to 100,–,–
"O=C(NCC(F)(F)F)c1cc(NC(=O)[C@H]2[C@H](c3ccc(F)c(Cl)c3)C2(Cl)Cl)ccc1Cl (relative stereo) [F105, trans-2-Chloro-5-(2,2-dichloro-3-(3-chloro-4-fluorophenyl)cyclopropane-1-carboxamido)-N-(2,2,2-trifluoroethyl)benzamide]",50 to 100,A (80-100),50 to 100,–,–
"O=C(NCC(F)(F)F)c1cc(NC(=O)C2C(c3cc(F)c(F)c(F)c3)C2(Cl)Cl)ccc1Cl (stereo not drawn) [F126, 2-Chloro-5-trans-(2,2-dichloro-3-(3,4,5-trifluorophenyl)cyclopropane-1-carboxamido)-N-(2,2,2-trifluoroethyl)benzamide]",50 to 100,A (80-100),50 to 100,–,–
"O=C(NCc1cccnc1)c1cc(NC(=O)[C@H]2[C@H](c3cc(Cl)c(Cl)c(Cl)c3)C2(Cl)Cl)ccc1Cl (relative stereo) [F7, trans-2-Chloro-5-(2,2-dichloro-3-(3,4,5-trichlorophenyl)cyclopropane-1-carboxamido)-N-(pyridin-3-ylmethyl)benzamide]",50 to 100,A (80-100),50 to 100,–,–
"O=C(NCC(F)(F)F)c1cc(NC(=O)[C@H]2[C@H](c3ccc(F)c(C(F)F)c3)C2(Cl)Cl)ccc1Cl (relative stereo) [F131, 2-Chloro-5-(trans-2,2-dichloro-3-(3-(difluoromethyl)-4-fluorophenyl)cyclopropane-1-carboxamido)-N-(2,2,2-trifluoroethyl)benzamide]",50 to 100,A (80-100),50 to 100,–,–
"O=C(Nc1ccc(Cl)c(C(=O)N2CCC(F)(F)C2)c1)[C@H]1[C@H](c2cc(Cl)cc(Cl)c2)C1(Cl)Cl (relative stereo) [F71, trans-2,2-Dichloro-N-(4-chloro-3-(3,3-difluoropyrrolidine-1-carbonyl)phenyl)-3-(3,5-dichlorophenyl)cyclopropane-1-carboxamide]",50 to 100,D (No activity noticed in this bioassay),50 to 100,–,–
"CCCNC(=O)c1cc(NC(=O)[C@H]2[C@H](c3ccc(F)c(Cl)c3)C2(Cl)Cl)ccc1Cl (relative stereo) [F106, trans-2-Chloro-5-(2,2-dichloro-3-(3-chloro-4-fluorophenyl)cyclopropane-1-carboxamido)-N-propylbenzamide]",50 to 100,A (80-100),50 to 100,–,–
"O=C(NCC(F)(F)F)c1cc(NC(=O)[C@H]2[C@H](c3cc(F)cc(C(F)F)c3)C2(Cl)Cl)ccc1Cl (relative stereo) [F130, 2-Chloro-5-(trans-2,2-dichloro-3-(3-(difluoromethyl)-5-fluorophenyl)cyclopropane-1-carboxamido)-N-(2,2,2-trifluoroethyl)benzamide]",50 to 100,A (80-100),50 to 100,–,–
"CC(O)CNC(=O)c1cc(NC(=O)[C@H]2[C@H](c3cc(Cl)cc(Cl)c3)C2(Cl)Cl)ccc1Cl (relative stereo) [F78, trans-2-Chloro-5-(2,2-dichloro-3-(3,5-dichlorophenyl)cyclopropane-1-carboxamido)-N-(2-hydroxypropyl)benzamide]",50 to 100,A (80-100),50 to 100,–,–
"COCCOCCCNC(=O)c1cc(NC(=O)[C@H]2[C@H](c3cc(Cl)cc(Cl)c3)C2(Cl)Cl)ccc1Cl (relative stereo) [F58, trans-2-Chloro-5-(2,2-dichloro-3-(3,5-dichlorophenyl)cyclopropane-1-carboxamido)-N-(3-(2-methoxyethoxy)propyl)benzamide]",50 to 100,A (80-100),50 to 100,–,–
"O=C(NCCC1CC1)c1cc(NC(=O)C2C(c3ccc(Cl)c(Cl)c3)C2(Cl)Cl)ccc1Cl (stereo not drawn) [F25, trans-N-2-Chloro-N-(2-cyclopropylethyl)-5-(2,2-dichloro-3-(3,4-dichlorophenyl)cyclopropane-1-carboxamido)benzamide]",50 to 100,A (80-100),50 to 100,–,–
